In the supplement of paper PMC10733146:

Tests used:
Experiment in all cases: viability relative to DMSO control (fraction); higher = less drug effect (more viable cells)
Conditions in all cases: 48 h
[1] = system: primary AML patient cells (S006)
In short: (§1)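 Cells were incubated for 48 h at 37 °C and 5% CO2 in RPMI-1640 with penicillin/streptomycin, L-glutamine and human serum, at 4 × 10^4 cells per well in 384-well plates with compounds pre-plated at five concentrations, one well each. These were primary mononuclear tumour cells, fresh or cryopreserved, Ficoll-isolated from blood or bone marrow or obtained from processed lymph node. Viability values are CellTiter-Glo luminescence relative to the median of 16 inner DMSO wells.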

[2] = system: primary AML patient cells (S011)
In short: as §1

[3] = system: primary AML patient cells (S012)
In short: as §1

[4] = system: primary AML patient cells (S037)
In short: as §1

[5] = system: primary AML patient cells (S056)
In short: as §1

[6] = system: primary AML patient cells (S081)
In short: as §1

[7] = system: primary AML patient cells (S085)
In short: as §1

[8] = system: primary BL patient cells (S005)
In short: as §1

[9] = system: primary CLL patient cells (S031)
In short: as §1

[10] = system: primary CLL patient cells (S043)
In short: as §1

[11] = system: primary MCL patient cells (S041)
In short: as §1

[12] = system: primary MCL patient cells (S063)
In short: as §1

[13] = system: primary MCL patient cells (S068)
In short: as §1

[14] = system: primary T-PLL patient cells (S008)
In short: as §1

Q: `Nc1nc(=S)c2[nH]cnc2[nH]1` [Thioguanin] was tested. Which viability ([1]; 0.024 µM) did it give?
A: 1.07

Q: And the viability ([1]; 0.12 µM)?
A: 0.996

Q: What about the viability ([1]; 0.6 µM) of the same molecule?
A: 0.57

Q: What about the viability ([1]; 3 µM) of the same molecule?
A: 0.202

Q: What about the viability ([1]; 15 µM) of the same molecule?
A: 0.0984

Q: And the viability ([2]; 0.024 µM)?
A: 1.02

Q: What about the viability ([2]; 0.12 µM) of the same molecule?
A: 0.977

Q: What about the viability ([2]; 0.6 µM) of the same molecule?
A: 0.658

Q: And the viability ([2]; 3 µM)?
A: 0.339

Q: And the viability ([2]; 15 µM)?
A: 0.239

Q: And the viability ([3]; 0.024 µM)?
A: 0.99

Q: What about the viability ([3]; 0.12 µM) of the same molecule?
A: 1

Q: And the viability ([3]; 0.6 µM)?
A: 0.946

Q: And the viability ([3]; 3 µM)?
A: 0.751

Q: And the viability ([3]; 15 µM)?
A: 0.513

Q: And the viability ([4]; 0.024 µM)?
A: 1

Q: What about the viability ([4]; 0.12 µM) of the same molecule?
A: 0.937

Q: And the viability ([4]; 0.6 µM)?
A: 0.701

Q: What about the viability ([4]; 3 µM) of the same molecule?
A: 0.481

Q: And the viability ([4]; 15 µM)?
A: 0.395

Q: And the viability ([5]; 0.024 µM)?
A: 0.912

Q: And the viability ([5]; 0.12 µM)?
A: 0.897

Q: And the viability ([5]; 0.6 µM)?
A: 0.889

Q: What about the viability ([5]; 3 µM) of the same molecule?
A: 0.339

Q: And the viability ([5]; 15 µM)?
A: 0.127

Q: What about the viability ([6]; 0.024 µM) of the same molecule?
A: 1.09

Q: What about the viability ([6]; 0.12 µM) of the same molecule?
A: 0.899

Q: What about the viability ([6]; 0.6 µM) of the same molecule?
A: 0.621

Q: What about the viability ([6]; 3 µM) of the same molecule?
A: 0.465

Q: What about the viability ([6]; 15 µM) of the same molecule?
A: 0.319

Q: What about the viability ([7]; 0.024 µM) of the same molecule?
A: 1.03

Q: What about the viability ([7]; 0.12 µM) of the same molecule?
A: 1

Q: And the viability ([7]; 0.6 µM)?
A: 0.714

Q: What about the viability ([7]; 3 µM) of the same molecule?
A: 0.402

Q: What about the viability ([7]; 15 µM) of the same molecule?
A: 0.24

Q: What about the viability ([8]; 0.024 µM) of the same molecule?
A: 0.938

Q: And the viability ([8]; 0.12 µM)?
A: 0.665

Q: What about the viability ([8]; 0.6 µM) of the same molecule?
A: 0.823

Q: And the viability ([8]; 3 µM)?
A: 0.673

Q: And the viability ([8]; 15 µM)?
A: 0.261

Q: And the viability ([9]; 0.024 µM)?
A: 1.07

Q: What about the viability ([9]; 0.12 µM) of the same molecule?
A: 0.972

Q: And the viability ([9]; 0.6 µM)?
A: 0.801

Q: And the viability ([9]; 3 µM)?
A: 0.613

Q: What about the viability ([9]; 15 µM) of the same molecule?
A: 0.327

Q: What about the viability ([10]; 0.024 µM) of the same molecule?
A: 0.884

Q: And the viability ([10]; 0.12 µM)?
A: 0.798

Q: What about the viability ([10]; 0.6 µM) of the same molecule?
A: 0.685

Q: And the viability ([10]; 3 µM)?
A: 0.546

Q: And the viability ([10]; 15 µM)?
A: 0.338

Q: What about the viability ([11]; 0.024 µM) of the same molecule?
A: 1.02

Q: What about the viability ([11]; 0.12 µM) of the same molecule?
A: 0.879

Q: What about the viability ([11]; 0.6 µM) of the same molecule?
A: 0.681

Q: And the viability ([11]; 3 µM)?
A: 0.515

Q: What about the viability ([11]; 15 µM) of the same molecule?
A: 0.388

Q: And the viability ([12]; 0.024 µM)?
A: 1.03

Q: And the viability ([12]; 0.12 µM)?
A: 0.867

Q: And the viability ([12]; 0.6 µM)?
A: 0.495

Q: What about the viability ([12]; 3 µM) of the same molecule?
A: 0.192

Q: What about the viability ([12]; 15 µM) of the same molecule?
A: 0.064

Q: What about the viability ([13]; 0.024 µM) of the same molecule?
A: 0.982

Q: What about the viability ([13]; 0.12 µM) of the same molecule?
A: 0.892

Q: What about the viability ([13]; 0.6 µM) of the same molecule?
A: 0.83

Q: What about the viability ([13]; 3 µM) of the same molecule?
A: 0.6

Q: What about the viability ([13]; 15 µM) of the same molecule?
A: 0.299

Q: And the viability ([14]; 0.024 µM)?
A: 1.02

Q: What about the viability ([14]; 0.12 µM) of the same molecule?
A: 0.986

Q: What about the viability ([14]; 0.6 µM) of the same molecule?
A: 0.957

Q: And the viability ([14]; 3 µM)?
A: 0.9

Q: What about the viability ([14]; 15 µM) of the same molecule?
A: 0.629
